Structures can show the parent of a compound that is named as a salt.
Biological target: PDE1A (Homo sapiens, UniProt P54750)
Experiment: PDE1A dose response, Cyclic Nucleotide Phosphodiesterase Assay Kit from Biomol (colorimetric)
Format: biochemical
Details: purified PDE1A enzyme, 100 μM cAMP
Outline: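 Purified PDE1A hydrolysed 100 μM cAMP with 5′-nucleotidase in Tris 20 mM pH 7.4 with calmodulin, Ca2+, Mg2+, 45 min at 37° C. Released phosphate read by malachite-green absorbance at 615 nm. Duplicate 8-point 1/3 dilutions from 20 μM, 1% DMSO; 10 μM vardenafil defined 100% inhibition.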

| SMILES | IC50 |
| --- | --- |
| CC(=O)c1ccccc1N1CC(c2nc3c(cnn3C3CCCCC3)c(=O)[nH]2)C1 [Example 151, 6-(1-(2-acetoylphenyl)azetidin-3-yl)-1-cyclohexyl-1H-pyrazolo[3,4-d]pyrimidin-4(5H)-one] | 101 to 500 nM |
| O=c1[nH]c(C2CN(c3ccc(C(F)(F)F)cc3)C2)nc2c1cnn2C1CCCCC1 [Example 152, 1-cyclohexyl-6-(1-(4-(trifluoromethyl)phenyl)azetidin-3-yl)-1H-pyrazolo[3,4-d]pyrimidin-4(5H)-one] | 101 to 500 nM |
| O=c1[nH]c(C2CCCN(c3ccc([N+](=O)[O-])cn3)C2)nc2c1cnn2C1CCCCC1 (stereo not shown) [Example 153, 1-cyclohexyl-6-(1-(5-nitropyridin-2-yl)piperidin-3-yl)-1H-pyrazolo[3,4-d]pyrimidin-4(5H)-one] | 1000 to 1500 nM |
| O=c1[nH]c(C2CCCN(c3ccc(C(F)(F)F)cn3)C2)nc2c1cnn2C1CCCCC1 (stereo not shown) [Example 154, 1-cyclohexyl-6-(1-(5-(trifluoromethyl)pyridin-2-yl)piperidin-3-yl)-1H-pyrazolo[3,4-d]pyrimidin-4(5H)-one] | 1000 to 1500 nM |
| O=c1[nH]c(C2CN(c3ccc(CN4CCOCC4)cc3)C2)nc2c1cnn2C1CCCCC1 [Example 155, 1-Cyclohexyl-6-[1-(4-morpholin-4-ylmethyl-phenyl)-azetidin-3-yl]-1,5-dihydro-pyrazolo[3,4-d]pyrimidin-4-one] | 1 to 100 nM |
| O=c1[nH]c(C2CN(c3ccccc3CN3CCOCC3)C2)nc2c1cnn2C1CCCCC1 [Example 156, 1-Cyclohexyl-6-(1-(2-(morpholinomethyl)phenyl)azetidin-3-yl)-1H-pyrazolo[3,4-d]pyrimidin-4(5H)-one] | 101 to 500 nM |
| CC(C)(C)c1csc(N2CC(c3nc4c(cnn4C4CCCCC4)c(=O)[nH]3)C2)n1 [Example 157, 6-(1-(4-tert-Butylthiazol-2-yl)azetidin-3-yl)-1-cyclohexyl-1H-pyrazolo[3,4-d]pyrimidin-4-(5H)-one] | 101 to 500 nM |
| O=c1[nH]c(C2CN(c3nnc(-c4ccccc4)[nH]3)C2)nc2c1cnn2C1CCCCC1 [Example 158, 1-Cyclohexyl-6-(1-(5-phenyl-4H-1,2,4-triazol-3-yl)azetidin-3-yl)-1H-pyrazolo[3,4-d]pyrimidin-4-(5H)-one] | 1 to 100 nM |
| O=c1[nH]c(C2CN(c3nc(-c4ccccc4)cs3)C2)nc2c1cnn2C1CCCCC1 [Example 159, 1-Cyclohexyl-6-(1-(4-phenylthiazol-2-yl)azetidin-3-yl)-1H-pyrazolo[3,4-d]pyrimidin-4-(5H)-one] | 1 to 100 nM |
| O=c1[nH]c(C2CN(c3ncc(-c4ccccc4)s3)C2)nc2c1cnn2C1CCCCC1 [Example 160, 1-Cyclohexyl-6-(1-(5-phenylthiazol-2-yl)azetidin-3-yl)-1H-pyrazolo[3,4-d]pyrimidin-4-(5H)-one] | 101 to 500 nM |
| CC(C)N1CCN(c2ccc(-c3csc(N4CC(c5nc6c(cnn6C6CCCCC6)c(=O)[nH]5)C4)n3)cc2)CC1 [Example 161, 1-Cyclohexyl-6-(1-(4-(4-(4-isopropylpiperazin-1-yl)phenyl)thiazol-2-yl)azetidin-3-yl)-1H-pyrazolo[3,4-d]pyrimidin-4-(5H)-one] | 1 to 100 nM |
| O=c1[nH]c(C2CN(c3nc(-c4ccccc4)c(CN4CCOCC4)s3)C2)nc2c1cnn2C1CCCCC1 [Example 162, 1-Cyclohexyl-6-(1-(5-morpholin-4-ylmethyl-4-phenylthiazol-2-yl)azetidin-3-yl)-1H-pyrazolo[3,4-d]pyrimidin-4-(5H)-one] | 1 to 100 nM |
| CC(C)(C)n1ncc2c(=O)[nH]c(C3CN(c4ccccn4)C3)nc21 [Example 163, 1-tert-Butyl-6-(1-pyridin-2-yl-azetidin-3-yl)-1,5-dihydro-pyrazolo[3,4-d]pyrimidin-4-one] | 101 to 500 nM |
| CC(C)(C)n1ncc2c(=O)[nH]c(C3CN(c4ccc(CN5CCOCC5)cc4)C3)nc21 [Example 164, 1-tert-Butyl-6-[1-(4-morpholin-4-ylmethyl-phenyl)-azetidin-3-yl]-1,5-dihydro-pyrazolo[3,4-d]pyrimidin-4-one] | 1 to 100 nM |
| COc1ccc(N2CC(c3nc4c(cnn4C4CCCCC4)c(=O)[nH]3)C2)cc1 [Example 165, 1-cyclohexyl-6-(1-(4-methoxyphenyl)azetidin-3-yl)-1H-pyrazolo[3,4-d]pyrimidin-4(5H)-one] | 101 to 500 nM |
| COc1cccc(N2CC(c3nc4c(cnn4C4CCCCC4)c(=O)[nH]3)C2)c1 [Example 166, 1-cyclohexyl-6-(1-(3-methoxyphenyl)azetidin-3-yl)-1H-pyrazolo[3,4-d]pyrimidin-4(5H)-one] | 101 to 500 nM |
| CC(=O)Nc1ccc(N2CC(c3nc4c(cnn4C4CCCCC4)c(=O)[nH]3)C2)cc1 [Example 167, N-(4-(3-(1-cyclohexyl-4-oxo-4,5-dihydro-1H-pyrazolo[3,4-d]pyrimidin-6-yl)azetidin-1-yl)phenyl)acetamide] | 101 to 500 nM |

| SMILES | IC50 |
| --- | --- |
| O=c1[nH]c(C2CN(c3ccccc3)C2)nc2c1cnn2C1CCCCC1 [Example 168, 1-cyclohexyl-6-(1-phenylazetidin-3-yl)-1H-pyrazolo[3,4-d]pyrimidin-4(5H)-one] | 101 to 500 nM |
| COc1ccccc1N1CC(c2nc3c(cnn3C3CCCCC3)c(=O)[nH]2)C1 [Example 169, 1-cyclohexyl-6-(1-(2-methoxyphenyl)azetidin-3-yl)-1H-pyrazolo[3,4-d]pyrimidin-4(5H)-one] | 101 to 500 nM |
| Cc1nn(C2CCCCC2)c2nc(C3CN(C(=O)N(C)Cc4ccc(F)cc4)C3)[nH]c(=O)c12 [Example 170, 3-(1-Cyclohexyl-3-methyl-4-oxo-4,5-dihydro-1H-pyrazolo[3,4-d]pyrimidin-6-yl)-N-(4-fluorobenzyl)-N-methylazetidine-1-carboxamide] | 101 to 500 nM |
| Cn1c(CN2CC(c3nc4c(cnn4C(C)(C)C)c(=O)[nH]3)C2)nc2ccccc21 [Example 171, 1-tert-Butyl-6-(1-((1-methyl-1H-benzo[d]imidazol-2-yl)methyl)azetidin-3-yl)-1H-pyrazolo[3,4-d]pyrimidin-4(5H)-one] | 501 to 1000 nM |
| O=c1[nH]c(C2CN(Cc3nc4ccccc4s3)C2)nc2c1cnn2C1CCCCC1 [Example 172, 6-(1-(Benzo[d]thiazol-2-ylmethyl)azetidin-3-yl)-1-cyclohexyl-1H-pyrazolo[3,4-d]pyrimidin-4(5H)-one] | 501 to 1000 nM |
| CC(C)(C)n1ncc2c(=O)[nH]c(C3CN(CC(=O)Nc4ccccc4)C3)nc21 [Example 173, 2-(3-(1-tert-Butyl-4-oxo-4,5-dihydro-1H-pyrazolo[3,4-d]pyrimidin-6-yl)azetidin-1-yl)-N-phenylacetamide] | 101 to 500 nM |
| CC(C)(C)n1ncc2c(=O)[nH]c(C3CN(CC(=O)c4ccccc4)C3)nc21 [Example 174, 1-tert-Butyl-6-(1-(2-oxo-2-phenylethyl)azetidin-3-yl)-1H-pyrazolo[3,4-d]pyrimidin-4(5H)-one] | 101 to 500 nM |
| CC(C)(C)n1ncc2c(=O)[nH]c(C3CN(Cc4nc5ccccc5[nH]4)C3)nc21 [Example 175, 6-(1-((1H-Benzo[d]imidazol-2-yl)methyl)azetidin-3-yl)-1-tert-butyl-1H-pyrazolo[3,4-d]pyrimidin-4(5H)-one] | 1000 to 1500 nM |
| O=c1[nH]c(C2CCCN(Cc3ccccc3)C2)nc2c1cnn2C1CCCCC1 (stereo not shown) [Example 176, 6-(1-Benzylpiperidin-3-yl)-1-cyclohexyl-1H-pyrazolo[3,4-d]pyrimidin-4(5H)-one] | 1000 to 1500 nM |
| N#C/N=C(/Nc1ccc(F)cc1)N1CC(c2nc3c(cnn3C3CCCCC3)c(=O)[nH]2)C1 [Example 177, N′-Cyano-3-(1-cyclohexyl-4-oxo-4,5-dihydro-1H-pyrazolo[3,4-d]pyrimidin-6-yl)-N-(4-fluorophenyl)azetidine-1-carboximidamide] | 1 to 100 nM |
| N#C/N=C(/NCC1CCCCC1)N1CC(c2nc3c(cnn3C3CCCCC3)c(=O)[nH]2)C1 [Example 178, N′-Cyano-3-(1-cyclohexyl-4-oxo-4,5-dihydro-1H-pyrazolo[3,4-d]pyrimidin-6-yl)-N-(cyclohexylmethyl)azetidine-1-carboximidamide] | 1 to 100 nM |
| CC(C)(C)n1ncc2c(=O)[nH]c(C3CN(/C(=N\C#N)Nc4ccc(F)cc4)C3)nc21 [Example 179, 3-(1-tert-Butyl-4-oxo-4,5-dihydro-1H-pyrazolo[3,4-d]pyrimidin-6-yl)-N′-cyano-N-(4-fluorophenyl)azetidine-1-carboximidamide] | 1 to 100 nM |
| O=c1[nH]c(C2CN(/C(=C\[N+](=O)[O-])NCC3CCCCC3)C2)nc2c1cnn2C1CCCCC1 [Example 180, 1-Cyclohexyl-6-(1-(1-(cyclohexylmethylamino)-2-nitrovinyl)azetidin-3-yl)-1H=pyrazolo[3,4-d]pyrimidin-4(5H)-one] | 101 to 500 nM |
| Cc1nn(C2CCCCC2)c2nc(C3CCCN(C(=O)c4ccccc4NS(C)(=O)=O)C3)[nH]c(=O)c12 (stereo not shown) [Example 181, N-{2-[3-(1-Cyclohexyl-3-methyl-4-oxo-4,5-dihydro-1H-pyrazolo[3,4-d]pyrimidin-6-yl)-piperidine-1-carbonyl]phenyl}-methanesulfonamide] | 501 to 1000 nM |
| O=C(NC1CCCNC1)N1CC(c2nc3c(cnn3C3CCCCC3)c(=O)[nH]2)C1 (stereo not shown) [Example 182, 3-(1-Cyclohexyl-4-oxo-4,5-dihydro-1H-pyrazolo[3,4-d]pyrimidin-6-yl)-azetidine-1-carboxylic acid piperidin-3-ylamide trifluoroacetate] | 501 to 1000 nM |
| CC(C)N1CCCC(NC(=O)N2CC(c3nc4c(cnn4C4CCCCC4)c(=O)[nH]3)C2)C1 (stereo not shown) [Example 183, 3-(1-Cyclohexyl-4-oxo-4,5-dihydro-1H-pyrazolo[3,4-d]pyrimidin-6-yl)-azetidine-1-carboxylic acid (1-isopropyl-piperidin-3-yl)-amide] | 101 to 500 nM |
| CC(C)N1CCC(CNC(=O)N2CC(c3nc4c(cnn4C4CCCCC4)c(=O)[nH]3)C2)CC1 [Example 184, 3-(1-Cyclohexyl-4-oxo-4,5-dihydro-1H-pyrazolo[3,4-d]pyrimidin-6-yl)-N-((1-isopropylpiperidin-4-yl)methyl)azetidine-1-carboxamide] | 501 to 1000 nM |
